{"source": "ChEMBL document CHEMBL1130817", "about": "“Sulfonamide derivatives of benzylamine block cholesterol biosynthesis in HepG2 cells: a new type of potent squalene epoxidase inhibitors” (Bioorg Med Chem Lett, 1998)", "key": {"Squalene monooxygenase [1]": {"molecular_target": "Squalene monooxygenase (Homo sapiens, UniProt Q14534)", "sequence (Q14534 whole entry)": "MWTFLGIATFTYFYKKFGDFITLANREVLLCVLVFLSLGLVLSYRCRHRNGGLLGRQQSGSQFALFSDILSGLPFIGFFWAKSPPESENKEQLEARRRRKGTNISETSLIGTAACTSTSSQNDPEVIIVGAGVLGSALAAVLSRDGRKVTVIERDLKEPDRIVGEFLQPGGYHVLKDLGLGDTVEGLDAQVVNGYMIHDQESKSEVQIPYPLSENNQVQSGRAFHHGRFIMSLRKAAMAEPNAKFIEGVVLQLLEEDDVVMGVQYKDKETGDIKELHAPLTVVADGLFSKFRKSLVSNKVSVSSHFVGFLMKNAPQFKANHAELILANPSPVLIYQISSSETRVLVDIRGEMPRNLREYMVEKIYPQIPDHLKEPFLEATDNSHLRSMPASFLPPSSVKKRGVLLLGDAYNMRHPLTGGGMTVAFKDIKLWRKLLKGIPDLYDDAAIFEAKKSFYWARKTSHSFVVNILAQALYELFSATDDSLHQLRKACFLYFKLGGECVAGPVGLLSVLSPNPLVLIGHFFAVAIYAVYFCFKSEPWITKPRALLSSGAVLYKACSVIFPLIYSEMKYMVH", "test": "In vitro inhibition of cholesterol biosynthesis in human HepG2 cells.", "format": "functional, cell-based"}, "[2]": {"molecular_target": "Squalene monooxygenase (Rattus norvegicus) (UniProt P52020)", "sequence (P52020 whole entry, looked up)": "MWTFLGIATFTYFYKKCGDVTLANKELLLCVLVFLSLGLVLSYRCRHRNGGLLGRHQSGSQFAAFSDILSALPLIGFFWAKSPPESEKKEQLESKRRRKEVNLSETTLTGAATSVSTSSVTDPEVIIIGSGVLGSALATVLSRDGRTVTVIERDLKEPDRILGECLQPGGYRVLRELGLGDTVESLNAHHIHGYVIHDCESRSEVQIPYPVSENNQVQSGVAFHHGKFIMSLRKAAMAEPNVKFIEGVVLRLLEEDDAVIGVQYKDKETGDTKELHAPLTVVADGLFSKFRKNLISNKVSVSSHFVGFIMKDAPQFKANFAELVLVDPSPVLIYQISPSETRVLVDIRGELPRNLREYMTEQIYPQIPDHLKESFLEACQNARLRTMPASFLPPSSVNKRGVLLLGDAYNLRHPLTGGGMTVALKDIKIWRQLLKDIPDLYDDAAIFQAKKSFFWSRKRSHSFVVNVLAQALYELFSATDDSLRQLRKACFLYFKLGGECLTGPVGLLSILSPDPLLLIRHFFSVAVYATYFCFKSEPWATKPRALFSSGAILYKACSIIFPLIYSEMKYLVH", "test": "Compound was evaluated in vivo for the inhibition of rat squalene epoxidase […]; Inactive", "format": "organism-based"}, "Squalene monooxygenase [3]": {"molecular_target": "Squalene monooxygenase (Rattus norvegicus, UniProt P52020)", "sequence (P52020 whole entry)": "as the sequence (P52020 whole entry, looked up) above", "test": "In vitro inhibition of rat liver squalene epoxidase […]", "format": "cell-based"}, "[4]": {"molecular_target": "Squalene monooxygenase (Rattus norvegicus) (UniProt P52020)", "test": "Compound was evaluated in vivo for the inhibition of rat mammalian squalene epoxidase […]", "format": "organism-based"}}, "note": "pIC50: −log10 of the molar value."}
{"smiles": "CCN(C/C=C/C#CC(C)(C)C)Cc1cccc(OCCN(C)S(=O)(=O)c2cccnc2)c1", "values": [{"measurement": "pIC50", "setting": "Squalene monooxygenase [1]", "value": 6.82}]}
{"smiles": "CCN(C/C=C/C#CC(C)(C)C)Cc1cccc(OCCN(C)S(=O)(=O)c2cccs2)c1", "values": [{"measurement": "ED50", "setting": "[2]", "value": 40, "unit": "mg/kg"}, {"measurement": "pIC50", "setting": "Squalene monooxygenase [1]", "value": 7.22}, {"measurement": "pIC50", "setting": "Squalene monooxygenase [3]", "value": 5.22}]}
{"smiles": "CCN(C/C=C/C#CC(C)(C)C)Cc1cccc(OCc2cc(-c3ccsc3)cs2)c1", "values": [{"measurement": "ED50", "setting": "[4]", "value": 2.5, "unit": "mg/kg"}]}
{"smiles": "CCN(C/C=C/C#CC(C)(C)C)Cc1cccc(OCCN(C)S(=O)(=O)c2ccc(-c3cccs3)s2)c1", "values": [{"measurement": "pIC50", "setting": "Squalene monooxygenase [1]", "value": 5.00}]}
{"smiles": "CCN(C/C=C/C#CC(C)(C)C)Cc1cccc(OCCN(C2CC2)S(=O)(=O)c2cccs2)c1", "values": [{"measurement": "pIC50", "setting": "Squalene monooxygenase [1]", "value": 6.64}]}
{"smiles": "CCN(C/C=C/C#CC(C)(C)C)Cc1cccc(OCCN(C)S(=O)(=O)c2cc(Br)cs2)c1", "values": [{"measurement": "pIC50", "setting": "Squalene monooxygenase [1]", "value": 6.52}]}
{"smiles": "CCN(C/C=C/C#CC(C)(C)C)Cc1cccc(OCCN(C)S(=O)(=O)c2cc3ccccc3s2)c1", "values": [{"measurement": "pIC50", "setting": "Squalene monooxygenase [1]", "value": 5.74}]}
{"smiles": "CCN(C/C=C/C#CC(C)(C)C)Cc1cccc(OCCNS(=O)(=O)c2cccs2)c1", "values": [{"measurement": "pIC50", "setting": "Squalene monooxygenase [1]", "value": 6.35}]}
{"smiles": "CCN(C/C=C/C#CC(C)(C)C)Cc1cccc(OCCN(C)S(=O)(=O)c2ccc(F)cc2)c1", "values": [{"measurement": "pIC50", "setting": "Squalene monooxygenase [1]", "value": 6.59}]}
{"smiles": "CCN(C/C=C/C#CC(C)(C)C)Cc1cccc(OCCN(CC)S(=O)(=O)c2cccs2)c1", "values": [{"measurement": "pIC50", "setting": "Squalene monooxygenase [1]", "value": 7.05}]}
{"smiles": "CCN(C/C=C/C#CC(C)(C)C)Cc1cccc(OCCN(C)S(=O)(=O)c2nccs2)c1", "values": [{"measurement": "pIC50", "setting": "Squalene monooxygenase [1]", "value": 6.77}]}
{"smiles": "CCN(C/C=C/C#CC(C)(C)C)Cc1cccc(OCCCN(C)S(=O)(=O)c2cccs2)c1", "values": [{"measurement": "pIC50", "setting": "Squalene monooxygenase [1]", "value": 5.19}]}
{"smiles": "CCN(C/C=C/C#CC(C)(C)C)Cc1cccc(OCCN(C)S(=O)(=O)c2ccc(Br)s2)c1", "values": [{"measurement": "pIC50", "setting": "Squalene monooxygenase [1]", "value": 6.41}]}
{"smiles": "CCN(C/C=C/C#CC(C)(C)C)Cc1cccc(OCCN(C)S(=O)(=O)c2ccsc2)c1", "values": [{"measurement": "pIC50", "setting": "Squalene monooxygenase [1]", "value": 6.60}]}
{"smiles": "CCN(C/C=C/C#CC(C)(C)C)Cc1cccc(OCCN(C)S(=O)(=O)c2ccc(C#N)cc2)c1", "values": [{"measurement": "pIC50", "setting": "Squalene monooxygenase [1]", "value": 6.70}]}
{"smiles": "CCN(C/C=C/C#CC(C)(C)C)Cc1cccc(OCCN(C)S(=O)(=O)c2cc(-c3ccsc3)cs2)c1", "values": [{"measurement": "pIC50", "setting": "Squalene monooxygenase [1]", "value": 7.05}]}
{"smiles": "CCN(C/C=C/C#CC(C)(C)C)Cc1cccc(OCCCS(=O)(=O)c2cccs2)c1", "values": [{"measurement": "pIC50", "setting": "Squalene monooxygenase [1]", "value": 6.54}]}
{"smiles": "CCN(C/C=C/C#CC(C)(C)C)Cc1cccc(OCCN(C)S(=O)(=O)Cc2cccs2)c1", "values": [{"measurement": "pIC50", "setting": "Squalene monooxygenase [1]", "value": 6.70}]}
{"smiles": "CCCN(CCOc1cccc(CN(CC)C/C=C/C#CC(C)(C)C)c1)S(=O)(=O)c1cccs1", "values": [{"measurement": "pIC50", "setting": "Squalene monooxygenase [1]", "value": 6.77}]}
{"smiles": "CCN(C/C=C/C#CC(C)(C)C)Cc1cccc(OCCN(C)S(=O)(=O)c2ccc(-c3ccsc3)s2)c1", "values": [{"measurement": "pIC50", "setting": "Squalene monooxygenase [1]", "value": 6.68}]}
{"smiles": "CCN(C/C=C/C#CC(C)(C)C)Cc1cccc(OCCN(C)S(=O)(=O)c2ccc(Br)cc2)c1", "values": [{"measurement": "pIC50", "setting": "Squalene monooxygenase [1]", "value": 6.48}]}
